Measurements taken from PMC5666424, “Marine-Derived 2-Aminoimidazolone Alkaloids. Leucettamine B-Related Polyandrocarpamines Inhibit Mammalian and Protozoan DYRK & CLK Kinases” (Marine Drugs, 2017).
Where two headings read alike, the source gives them in different places.

Experiments:
Experiment in all cases: Protein kinase assay
LmCK1 = LmCK1 (Leishmania major, UniProt Q9NHE1); assay type: biochemical
Description: CK1δ/ε (porcine brain, native) and LmCK1 (leishmania major, recombinant, expressed in E. coli as HIS fusion proteins) was assayed as described for CDK1 but in buffer C and using 25 μM CKS peptide ([…]pSAYSITA), a CK1-specific substrate.

CDK2/cyclin A = target: T1, CDK2/cyclin A (Homo sapiens, UniProt P24941); assay type: biochemical
T1 construct: made in house

CDK1/cyclin B = assay type: biochemical, starfish; conditions: 15 μmol/L ATP
CDK5/p25 = target: T2, CDK5/p25 (Homo sapiens, UniProt Q00535); assay type: biochemical
T2 construct: made in house
T2 sequence (Q00535 whole entry): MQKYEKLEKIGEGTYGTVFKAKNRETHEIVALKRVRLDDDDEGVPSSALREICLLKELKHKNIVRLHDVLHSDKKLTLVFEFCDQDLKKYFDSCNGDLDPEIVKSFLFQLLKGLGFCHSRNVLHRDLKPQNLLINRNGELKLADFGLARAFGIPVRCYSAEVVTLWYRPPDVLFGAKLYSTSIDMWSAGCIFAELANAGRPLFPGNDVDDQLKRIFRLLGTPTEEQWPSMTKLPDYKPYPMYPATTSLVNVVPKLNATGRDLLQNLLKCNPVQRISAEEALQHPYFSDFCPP
T2 sequence (Q15078 99-307 partner limits assumed): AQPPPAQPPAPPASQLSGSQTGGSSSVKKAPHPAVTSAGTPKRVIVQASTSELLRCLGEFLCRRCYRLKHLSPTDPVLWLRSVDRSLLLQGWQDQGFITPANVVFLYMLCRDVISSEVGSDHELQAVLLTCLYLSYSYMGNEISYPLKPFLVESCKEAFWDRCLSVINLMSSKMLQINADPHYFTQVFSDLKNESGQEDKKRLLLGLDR

DYRK1A = DYRK1A (Homo sapiens, UniProt Q13627); assay type: biochemical; conditions: 15 μmol/L ATP
LdDYRK1B = LdDYRK1B (Leishmania donovani, UniProt E9BC59); assay type: biochemical; conditions: 15 μmol/L ATP
Description: (§1) The parasitic kinase genes (Supplementary Data, Table S3) were optimized for expression in E. coli, synthesized, and cloned in pGEX-6P-1 (GE Healthcare, Sigma-Aldrich, St. Quentin Fallavier, France) with the type II restriction enzymes BamHI and XhoI for glutathione S-transferase (GST) fusion at the N-terminus (GenScript). Plasmids were transformed into chemically competent E. coli BL21(DE3), which were grown overnight at 37 °C in 2 × YT medium containing 100 μg/mL ampicillin. These cultures were used to inoculate 1 L volumes of 2 × YT medium (containing 100 μg/mL ampicillin) in 5 L flasks. The cultures were allowed to grow at 37 °C before the temperature was decreased to 18 °C. At an optical density at 600 nm (OD600) of about 1.0, protein expression was induced overnight at 18 °C with 0.1 mM isopropyl β-D-1-thiogalactopyranoside (IPTG). The bacteria were harvested by centrifugation and were frozen at −20 °C.
(§2) Cells were resuspended in a lysis buffer (PBS pH 7.4, 1% NP40, 1 mM DTT, 1 mM EDTA, 1 mM PMSF) in the presence of protease inhibitor cocktail (Roche), and lysozyme was added to 1 mg/mL and incubated 1 h at 4 °C with gentle agitation. Cells were then sonicated on ice before 6 mM MgCl2 and 25 U/mL benzonase (Novagen, Merck Millipore, Fontenay sous Bois, France) were added to degrade nucleic acids and decrease sample viscosity. After centrifugation at 4 °C, the soluble fraction was collected and proteins were bound to Glutathione sepharose 4B beads (GE Healthcare). Beads were washed three times with lysis buffer and once with modified buffer C (25 mM MOPS pH 7.0, 60 mM β-glycerophosphate, 15 mM p-nitrophenylphosphate, 15 mM EGTA, 15 mM MgCl2, 2 mM DTT, 1 mM sodium vanadate). Proteins were eluted with elution buffer (buffer C containing 30 mM reduced glutathione, 15% glycerol, and pH adjusted to 8.5).

PfCLK1 = PfCLK1 (Plasmodium falciparum, UniProt Q8IL19); assay type: biochemical
PfCLK1, sequence (Q8IL19 entry or part of it): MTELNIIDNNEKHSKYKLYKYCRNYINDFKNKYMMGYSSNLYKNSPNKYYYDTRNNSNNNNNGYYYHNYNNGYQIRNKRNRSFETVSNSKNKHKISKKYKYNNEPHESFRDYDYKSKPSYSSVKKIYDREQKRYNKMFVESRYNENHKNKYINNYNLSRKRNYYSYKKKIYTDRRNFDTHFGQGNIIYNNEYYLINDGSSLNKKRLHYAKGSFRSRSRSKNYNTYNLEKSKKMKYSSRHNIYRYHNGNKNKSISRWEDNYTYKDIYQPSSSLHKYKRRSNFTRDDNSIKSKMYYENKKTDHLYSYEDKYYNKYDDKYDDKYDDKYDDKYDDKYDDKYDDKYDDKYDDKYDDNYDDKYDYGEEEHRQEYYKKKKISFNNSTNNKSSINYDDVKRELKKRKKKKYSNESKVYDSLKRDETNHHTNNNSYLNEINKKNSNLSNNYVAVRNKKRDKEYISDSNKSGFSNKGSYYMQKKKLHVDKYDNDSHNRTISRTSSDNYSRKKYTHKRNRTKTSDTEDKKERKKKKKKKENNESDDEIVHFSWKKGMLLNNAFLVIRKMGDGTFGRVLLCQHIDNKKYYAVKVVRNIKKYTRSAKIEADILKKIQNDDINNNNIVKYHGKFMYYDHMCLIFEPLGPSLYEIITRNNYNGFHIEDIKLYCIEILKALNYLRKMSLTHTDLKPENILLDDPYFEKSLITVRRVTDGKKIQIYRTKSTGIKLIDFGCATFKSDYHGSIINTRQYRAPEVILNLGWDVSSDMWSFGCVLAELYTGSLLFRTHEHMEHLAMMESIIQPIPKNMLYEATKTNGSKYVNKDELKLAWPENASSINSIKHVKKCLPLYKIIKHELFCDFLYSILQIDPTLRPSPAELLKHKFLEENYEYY
Description: as §1, §2

LmDYRK2 = LmDYRK2 (Leishmania major, UniProt Q4Q405); assay type: biochemical
Description: as §1, §2

TcCLK1 = TcCLK1 (Trypanosoma cruzi, UniProt Q4E3Z1); assay type: biochemical
Description: as §1, §2

LdDYRK3 = LdDYRK3 (Leishmania donovani, UniProt E9BS59); assay type: biochemical
Description: as §1, §2

GlCLK = GlCLK (Giardia intestinalis, UniProt A8BBY0); assay type: biochemical
Description: as §1, §2

TbCLK1 = TbCLK1 (Trypanosoma brucei brucei, UniProt Q382U0); assay type: biochemical
TbCLK1, sequence (Q382U0 entry or part of it): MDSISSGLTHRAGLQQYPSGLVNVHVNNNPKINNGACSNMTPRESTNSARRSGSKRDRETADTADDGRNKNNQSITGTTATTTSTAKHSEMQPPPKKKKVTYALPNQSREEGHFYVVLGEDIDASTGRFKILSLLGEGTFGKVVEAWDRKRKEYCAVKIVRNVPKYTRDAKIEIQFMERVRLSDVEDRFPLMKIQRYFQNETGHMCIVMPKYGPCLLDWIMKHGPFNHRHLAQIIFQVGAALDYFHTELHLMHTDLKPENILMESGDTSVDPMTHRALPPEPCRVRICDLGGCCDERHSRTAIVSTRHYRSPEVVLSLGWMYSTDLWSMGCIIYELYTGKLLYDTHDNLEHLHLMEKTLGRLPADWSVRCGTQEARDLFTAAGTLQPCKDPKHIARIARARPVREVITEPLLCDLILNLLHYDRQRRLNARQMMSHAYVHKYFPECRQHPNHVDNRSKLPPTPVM
Description: as §1, §2

LmCLK = LmCLK (Leishmania major, UniProt Q4QHY4); assay type: biochemical
LmCLK, sequence (Q4QHY4 entry or part of it): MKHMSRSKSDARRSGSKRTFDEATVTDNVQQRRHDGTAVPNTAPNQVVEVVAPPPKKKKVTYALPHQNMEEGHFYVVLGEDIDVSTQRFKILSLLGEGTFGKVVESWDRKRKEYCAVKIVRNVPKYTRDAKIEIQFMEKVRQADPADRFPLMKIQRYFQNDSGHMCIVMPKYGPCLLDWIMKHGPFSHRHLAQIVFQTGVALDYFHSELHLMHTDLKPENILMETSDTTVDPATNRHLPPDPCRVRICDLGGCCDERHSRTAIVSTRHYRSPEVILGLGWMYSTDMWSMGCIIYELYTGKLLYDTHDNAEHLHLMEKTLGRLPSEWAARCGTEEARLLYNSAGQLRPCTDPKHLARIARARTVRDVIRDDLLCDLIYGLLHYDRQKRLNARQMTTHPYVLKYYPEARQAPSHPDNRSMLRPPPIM
Description: as §1, §2

CpLAMMER = CpLAMMER (Cryptosporidium parvum, UniProt A3FQG5); assay type: biochemical
CpLAMMER, sequence (A3FQG5 entry or part of it): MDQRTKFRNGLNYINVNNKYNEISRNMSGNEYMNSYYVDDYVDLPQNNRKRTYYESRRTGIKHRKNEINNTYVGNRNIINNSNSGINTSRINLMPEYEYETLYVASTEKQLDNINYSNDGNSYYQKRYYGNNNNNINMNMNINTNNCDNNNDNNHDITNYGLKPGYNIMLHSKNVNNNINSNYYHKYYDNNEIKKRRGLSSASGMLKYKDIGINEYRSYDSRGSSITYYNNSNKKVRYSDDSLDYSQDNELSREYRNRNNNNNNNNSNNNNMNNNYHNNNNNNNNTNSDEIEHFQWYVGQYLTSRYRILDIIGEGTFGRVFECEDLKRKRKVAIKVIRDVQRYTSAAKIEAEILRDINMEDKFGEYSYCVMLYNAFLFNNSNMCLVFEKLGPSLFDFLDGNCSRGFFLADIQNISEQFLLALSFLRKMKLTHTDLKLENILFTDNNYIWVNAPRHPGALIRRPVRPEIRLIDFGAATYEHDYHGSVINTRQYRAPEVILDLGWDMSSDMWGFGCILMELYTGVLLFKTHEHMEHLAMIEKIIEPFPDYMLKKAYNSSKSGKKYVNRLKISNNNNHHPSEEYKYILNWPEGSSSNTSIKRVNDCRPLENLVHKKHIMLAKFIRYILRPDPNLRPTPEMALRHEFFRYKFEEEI
Description: as §1, §2

LdDYRK4 = LdDYRK4 (Leishmania donovani, UniProt A0A3Q8IC55); assay type: biochemical
LdDYRK4, sequence (A0A3Q8IC55 entry or part of it): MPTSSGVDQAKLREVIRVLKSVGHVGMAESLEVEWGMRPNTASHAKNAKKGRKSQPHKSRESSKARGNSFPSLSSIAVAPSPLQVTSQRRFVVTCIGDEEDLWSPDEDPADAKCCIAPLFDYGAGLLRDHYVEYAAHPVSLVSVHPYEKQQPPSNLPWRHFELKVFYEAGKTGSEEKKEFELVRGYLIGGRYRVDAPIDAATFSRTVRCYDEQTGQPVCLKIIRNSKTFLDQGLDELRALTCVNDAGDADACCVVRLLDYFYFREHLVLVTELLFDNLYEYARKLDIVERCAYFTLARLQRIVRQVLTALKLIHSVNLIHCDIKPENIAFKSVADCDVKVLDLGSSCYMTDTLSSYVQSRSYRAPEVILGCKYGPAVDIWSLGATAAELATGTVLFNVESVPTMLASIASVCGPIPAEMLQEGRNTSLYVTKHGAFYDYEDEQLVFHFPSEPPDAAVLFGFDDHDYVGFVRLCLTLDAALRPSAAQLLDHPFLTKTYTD
Description: as §1, §2

PfGSK-3 = target: T3, PfGSK-3 (Plasmodium falciparum, UniProt O77344); assay type: biochemical
T3 sequence (O77344 1-440): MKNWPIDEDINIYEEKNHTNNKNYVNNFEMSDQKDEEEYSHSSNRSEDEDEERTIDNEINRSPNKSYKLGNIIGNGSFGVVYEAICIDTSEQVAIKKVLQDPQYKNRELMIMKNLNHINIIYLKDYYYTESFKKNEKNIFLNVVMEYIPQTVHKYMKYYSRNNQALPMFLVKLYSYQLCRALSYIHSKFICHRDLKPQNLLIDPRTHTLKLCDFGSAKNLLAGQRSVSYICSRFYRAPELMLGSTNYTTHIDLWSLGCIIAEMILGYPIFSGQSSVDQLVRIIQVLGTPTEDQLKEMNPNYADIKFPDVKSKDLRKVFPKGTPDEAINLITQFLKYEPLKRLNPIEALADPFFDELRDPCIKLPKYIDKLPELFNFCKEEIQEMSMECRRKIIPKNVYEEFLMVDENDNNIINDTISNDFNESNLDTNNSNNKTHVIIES
Description: as §1, §2

CLK1 = CLK1 (Mus musculus, UniProt P22518); conditions: IC50 CLK1, 15 μmol/L ATP
CLK4 = CLK4 (Mus musculus, UniProt O35493); conditions: IC50 CLK4, 15 μmol/L ATP
CLK3 = CLK3 (Mus musculus, UniProt O35492); conditions: IC50 CLK3, 15 μmol/L ATP
CLK3, sequence (O35492 whole entry): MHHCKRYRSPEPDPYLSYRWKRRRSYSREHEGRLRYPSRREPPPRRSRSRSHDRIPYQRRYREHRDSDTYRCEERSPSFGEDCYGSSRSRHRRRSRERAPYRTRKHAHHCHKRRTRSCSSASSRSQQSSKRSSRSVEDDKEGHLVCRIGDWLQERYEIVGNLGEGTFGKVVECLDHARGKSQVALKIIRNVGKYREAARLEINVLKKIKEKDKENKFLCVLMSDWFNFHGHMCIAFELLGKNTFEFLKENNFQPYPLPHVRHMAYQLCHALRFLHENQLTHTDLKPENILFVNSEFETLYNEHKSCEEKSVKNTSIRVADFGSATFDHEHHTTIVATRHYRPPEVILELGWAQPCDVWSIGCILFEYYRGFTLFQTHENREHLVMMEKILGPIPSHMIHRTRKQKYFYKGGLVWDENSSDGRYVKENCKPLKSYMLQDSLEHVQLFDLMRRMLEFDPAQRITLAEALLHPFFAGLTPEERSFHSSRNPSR

CLK2 = CLK2 (Mus musculus, UniProt O35491); conditions: IC50 CLK2, 15 μmol/L ATP
CLK2, sequence (O35491 whole entry): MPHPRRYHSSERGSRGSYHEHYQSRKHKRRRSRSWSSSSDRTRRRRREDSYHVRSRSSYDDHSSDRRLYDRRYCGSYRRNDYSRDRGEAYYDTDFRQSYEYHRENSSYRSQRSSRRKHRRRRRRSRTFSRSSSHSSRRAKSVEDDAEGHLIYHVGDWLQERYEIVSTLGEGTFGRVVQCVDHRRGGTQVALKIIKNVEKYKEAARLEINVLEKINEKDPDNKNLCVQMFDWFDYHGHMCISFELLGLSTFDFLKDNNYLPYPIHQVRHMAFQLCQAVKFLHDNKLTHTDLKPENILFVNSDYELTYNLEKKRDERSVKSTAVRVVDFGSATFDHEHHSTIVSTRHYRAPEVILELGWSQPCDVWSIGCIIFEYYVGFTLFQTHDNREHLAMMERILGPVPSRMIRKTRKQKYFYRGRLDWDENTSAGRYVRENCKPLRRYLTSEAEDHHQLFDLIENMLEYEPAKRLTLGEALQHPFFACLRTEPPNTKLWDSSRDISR

DYRK1B = DYRK1B (Homo sapiens, UniProt Q9Y463); assay type: biochemical; conditions: 15 μmol/L ATP
[1] = 15 μmol/L ATP, read-out: IC50 LmCK1
[2] = 15 μmol/L ATP, read-out: IC50 CDK2/cyclin A
[3] = 15 μmol/L ATP, read-out: IC50 CDK5/p25
[4] = 15 μmol/L ATP, read-out: IC50 PfCLK1
[5] = 15 μmol/L ATP, read-out: IC50 LmDYRK2
[6] = 15 μmol/L ATP, read-out: IC50 TcCLK1
[7] = 15 μmol/L ATP, read-out: IC50 LdDYRK3
[8] = 15 μmol/L ATP, read-out: IC50 GlCLK
[9] = 15 μmol/L ATP, read-out: IC50 TbCLK1
[10] = 15 μmol/L ATP, read-out: IC50 LmCLK
[11] = 15 μmol/L ATP, read-out: IC50 CpLAMMER
[12] = 15 μmol/L ATP, read-out: IC50 LdDYRK4
[13] = 15 μmol/L ATP, read-out: IC50 PfGSK-3

LmCK1, sequence (Q9NHE1 entry or part of it): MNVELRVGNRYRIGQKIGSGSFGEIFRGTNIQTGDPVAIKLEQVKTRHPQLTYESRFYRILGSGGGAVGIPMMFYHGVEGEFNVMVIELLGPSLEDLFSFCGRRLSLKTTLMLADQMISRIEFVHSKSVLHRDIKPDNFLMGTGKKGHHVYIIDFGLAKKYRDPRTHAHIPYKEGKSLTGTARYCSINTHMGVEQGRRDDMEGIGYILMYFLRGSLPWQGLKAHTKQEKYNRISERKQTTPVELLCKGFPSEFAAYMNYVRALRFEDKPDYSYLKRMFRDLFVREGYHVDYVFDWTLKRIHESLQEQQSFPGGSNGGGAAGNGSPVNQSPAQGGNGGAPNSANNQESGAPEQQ

SMILES	IC50 (LmCK1; [1]) [µM]	IC50 (CDK2/cyclin A; [2]) [µM]	IC50 (CDK1/cyclin B) [µM]	IC50 (DYRK1A) [µM]	IC50 (LdDYRK1B) [µM]	IC50 (PfCLK1; [4]) [µM]	IC50 (LmDYRK2; [5]) [µM]	IC50 (TcCLK1; [6]) [µM]	IC50 (LdDYRK3; [7]) [µM]	IC50 (GlCLK; [8]) [µM]	IC50 (TbCLK1; [9]) [µM]	IC50 (LmCLK; [10]) [µM]	IC50 (CpLAMMER; [11]) [µM]	IC50 (LdDYRK4; [12]) [µM]	IC50 (PfGSK-3; [13]) [µM]	IC50 (CLK1) [µM]	IC50 (CLK4) [µM]	IC50 (CLK3) [µM]	IC50 (CLK2) [µM]	IC50 (DYRK1B) [µM]	further results
NC1=NC(=O)/C(=C2\CCNC(=O)c3[nH]cc(Br)c32)N1 [Spongiacidin B]	0.025	0.068	0.031	0.78	0.5	0.085	9	1.1	0.3	0.12	0.71	5.2	0.13	> 10	0.038	0.022	0.0036	0.049	0.0073	0.0058	IC50 (CDK5/p25; [3]): 0.042 µM
CN1C(=N)N(C)/C(=C\c2c[nH]c3ccccc23)C1=O [Aplysinopsine]	> 10	> 10	> 10	> 10	> 10	> 10	> 10	> 10	> 10	> 10	> 10	> 10	> 10	> 10	> 10	> 10	> 10	> 10	> 10	> 10	IC50 (CDK5/p25; [3]): > 10 µM
CN1C(=O)N=C(Nc2nc(Cc3ccc4c(c3)OCO4)cn2C)C1=O [Clathridine]	> 10	> 10	> 10	7.8	> 10	> 10	> 10	> 10	> 10	> 10	> 10	> 10	> 10	> 10	> 10	6.9	3.9	> 10	6	> 10	IC50 (CDK5/p25; [3]): > 10 µM
NC1=N/C(=C\c2ccc(O)c(O)c2)C(=O)N1 [Polyandrocarpamine B]	> 10	> 10	> 10	0.47	> 10	3.1	> 10	> 10	> 10	2.2	> 10	> 10	0.2	> 10	> 10		0.82	8.6	4.9	1.2	IC50 (CDK5/p25; [3]): > 10 µM
NC1=N/C(=C\CCNC(=O)c2cc(Br)c(Br)[nH]2)C(=O)N1 [Dispacamide]	> 10	> 10	> 10	> 10	> 10	> 10	> 10	> 10	> 10	> 10	> 10	> 10	> 10	> 10	> 10	> 10	> 10	> 10	> 10	> 10	IC50 (CDK5/p25; [3]): > 10 µM
CN1C(=N)N=C(Nc2nc(Cc3ccc4c(c3)OCO4)cn2C)C1=O [Clathridimine]	> 10	> 10	> 10	5.2	> 10	> 10	> 10	> 10	7.9	> 10	> 10	> 10	> 10	> 10	> 10	7.2	3.5	> 10	6.1	5.6	IC50 (CDK5/p25; [3]): > 10 µM
COc1cc(/C=C2\N=C(N)NC2=O)ccc1O [Polyandrocarpamine A]	> 10	> 10		0.27	1.1	0.65	5.9	> 10	> 10	0.95	> 10	> 10	0.17	> 10	> 10	1	0.32	2.6	1.2	0.43	IC50 (CDK5/p25; [3]): > 10 µM
CN1C(=O)/C(=C/c2ccc3c(c2)OCO3)N=C1N [Leucettamine B]			> 10		6.9											0.1	0.12	9.7	0.91		IC50 (LmCK1): > 10 µM; IC50 (CDK2/cyclin A): > 10 µM; IC50 (PfCLK1): 0.79 µM; IC50 (LmDYRK2): 4.2 µM; IC50 (TcCLK1): > 10 µM; IC50 (LdDYRK3): > 10 µM; IC50 (GlCLK): 3.1 µM; IC50 (TbCLK1): > 10 µM; IC50 (LmCLK): > 10 µM; IC50 (CpLAMMER): 1.8 µM; IC50 (LdDYRK4): > 10 µM; IC50 (PfGSK-3): > 10 µM
NC1=NC(=O)/C(=C2\CCNC(=O)c3[nH]c(Br)cc32)N1 [Hymenialdisine, reference compound]	0.0025	0.011	0.005	0.0033	0.042	0.011	0.38	0.51	0.021	0.012	0.53	0.4	0.016	> 10	0.0041	0.003	0.0029	0.0053	0.0041	0.0032	IC50 (CDK5/p25): 0.0061 µM
